Measured values: patent publication US8889688B2, “Piperazines as antimalarial agents” (Actelion Pharmaceuticals Ltd., priority 2011, dated 2014)
Where two headings read alike, the source gives them in different places.

Test system: erythrocytic stages of P. falciparum NF54
Assay: Plasmodium falciparum in vitro assay, [3H] hypoxanthine incorporation
Type: cell-based
Conditions: Plasmodium falciparum, Erythrocyte, 72 h, P. falciparum NF54 in human red blood cells, 48 h + 24 h incubation
Description: In Vitro Antimalarial Activity: Plasmodium falciparum In Vitro Assay In vitro activity against erythrocytic stages of P. falciparum in human red blood cells is determined using a [^3H] hypoxanthine incorporation assay. […] Thereafter, the parasite cultures incubated in screening medium containing washed human red blood cells at 2.5% hematocrit (0.3% parasitemia) are added to the serially diluted compounds and incubated in a humidifying atmosphere at 37° C., 4% CO2, 3% O2, and 93% N2. After 48 h, [^3H] hypoxanthine (0.5 μCi) is added to each well of a plate. The plates are incubated for a further 24 h under the same conditions then harvested with a Betaplate cell harvester (Wallac) and washed with distilled water. The dried filters are inserted into a plastic foil with 10 mL of scintillation fluid, and counted in a Betaplate liquid scintillation counter. IC50 values are calculated from sigmoidal inhibition curves using Microsoft Excel.

[1] = screening medium with Albumax (5 g/L), read-out: IC50 on NF54 (with Albumax)
[2] = screening medium with human serum (50% final concentration), read-out: IC50 on NF54 (with 50% Serum)

SMILES: CC(=O)N1CCN(c2ccc(CN(C(=O)C=Cc3ccc(C(F)(F)F)cc3)[C@@H](Cc3ccccc3)C(=O)N3CCN(Cc4ccc(OC(C)C)cc4)CC3)cc2)CC1 [Example 65, (S)-N-[4-(4-Acetyl-piperazin-1-yl)-benzyl]-N-{1-benzyl-2-[4-(4-isopropoxy-benzyl)-piperazin-1-yl]-2-oxo-ethyl}-3-(4-trifluoromethyl-phenyl)-acrylamide]
- IC50 [1]: 2.8 nM
- IC50 [2]: 14 nM

SMILES: COc1ccc(C=CC(=O)N(Cc2ccc(N3CCN(C(C)=O)CC3)cc2)[C@@H](Cc2ccccc2)C(=O)N2CCN(Cc3ccc(N(C)C)cc3)CC2)cn1 [Example 13, (S)-N-[4-(4-Acetyl-piperazin-1-yl)-benzyl]-N-{1-benzyl-2-[4-(4-dimethylamino-benzyl)-piperazin-1-yl]-2-oxo-ethyl}-3-(6-methoxy-pyridin-3-yl)-acrylamide]
- IC50 [1]: 12 nM
- IC50 [2]: 46 nM

SMILES: CC(=O)N1CCN(c2ccc(CN(C(=O)C=Cc3ccc(C(F)(F)F)nc3)[C@@H](Cc3ccccc3)C(=O)N3CCN(Cc4ccc(N(C)C)cc4)CC3)cc2)CC1 [Example 12, (S)-N-[4-(4-Acetyl-piperazin-1-yl)-benzyl]-N-{1-benzyl-2-[4-(4-dimethylamino-benzyl)-piperazin-1-yl]-2-oxo-ethyl}-3-(6-trifluoromethyl-pyridin-3-yl)-acrylamide]
- IC50 [1]: 17 nM
- IC50 [2]: 74 nM

SMILES: COc1ccc(C=CC(=O)N(Cc2ccc(N3CCN(C(C)=O)CC3)cc2)[C@@H](Cc2ccccc2)C(=O)N2CCN(Cc3ccc(N(C)C)cc3)CC2)cc1 [Example 69, (S)-N-[4-(4-Acetyl-piperazin-1-yl)benzyl]-N-{1-(4-(4-(dimethylamino)benzyl)piperazin-1-yl)-1-oxo-3-phenylpropan-2-yl}-3-(4-methoxyphenyl)acrylamide]
- IC50 [1]: < 3.1 nM
- IC50 [2]: 17 nM

SMILES: CCCc1ccc(C=CC(=O)N(Cc2ccc(N3CCN(C(C)=O)CC3)cc2)[C@@H](Cc2ccccc2)C(=O)N2CCN(Cc3ccc(N(C)C)cc3)CC2)cc1 [Example 68, (S)-N-[4-(4-Acetyl-piperazin-1-yl)benzyl]-N-{1-(4-(4-(dimethylamino)benzyl)piperazin-1-yl)-1-oxo-3-phenylpropan-2-yl}-3-(4-propylphenyl)acrylamide]
- IC50 [1]: 0.7 nM
- IC50 [2]: 8 nM

SMILES: CC(=O)N1CCN(c2ccc(CN(C(=O)C=Cc3ccc(C)cc3)[C@@H](Cc3ccccc3)C(=O)N3CCN(Cc4ccc(N(C)C)cc4)CC3)cc2)CC1 [Example 67, (S)-N-[4-(4-Acetyl-piperazin-1-yl)benzyl]-N-{1-[4-(4-(dimethylamino)benzyl)piperazin-1-yl]-1-oxo-3-phenylpropan-2-yl}-3-(p-tolyl)acrylamide]
- IC50 [1]: < 3.1 nM
- IC50 [2]: 17.5 nM

SMILES: CC(=O)N1CCN(c2ccc(CN(C(=O)C=Cc3ccc(C(F)(F)F)nc3)[C@@H](Cc3ccccc3)C(=O)N3CCN(Cc4ccc(N(C)CCO)cc4)CC3)cc2)CC1 [Example 51, (S)-N-[4-(4-Acetyl-piperazin-1-yl)-benzyl]-N-[1-benzyl-2-(4-{4-[(2-hydroxy-ethyl)-methyl-amino]-benzyl}-piperazin-1-yl)-2-oxo-ethyl]-3-(6-trifluoromethyl-pyridin-3-yl)-acrylamide]
- IC50 [1]: 10.7 nM
- IC50 [2]: 29.8 nM

SMILES: CC(=O)N1CCN(c2ccc(CN(C(=O)C=Cc3ccc(Cl)cc3)[C@@H](Cc3ccccc3)C(=O)N3CCN(Cc4ccc(N(C)C)cc4)CC3)cc2)CC1 [Example 73, (S)-N-[4-(4-Acetyl-piperazin-1-yl)benzyl]-3-(4-chlorophenyl)-N-{1-(4-(4-(dimethylamino)benzyl)piperazin-1-yl)-1-oxo-3-phenylpropan-2-yl}acrylamide]
- IC50 [1]: 3.3 nM
- IC50 [2]: 26 nM

SMILES: CCOc1ccc(C=CC(=O)N(Cc2ccc(N3CCN(C(C)=O)CC3)cc2)[C@@H](Cc2ccccc2)C(=O)N2CCN(Cc3ccc(N(C)C)cc3)CC2)cn1 [Example 14, (S)-N-[4-(4-Acetyl-piperazin-1-yl)-benzyl]-N-{1-benzyl-2-[4-(4-dimethylamino-benzyl)-piperazin-1-yl]-2-oxo-ethyl}-3-(6-ethoxy-pyridin-3-yl)-acrylamide]
- IC50 [1]: 3.7 nM
- IC50 [2]: 20 nM
